For test [1], the system named is fibroblast-like synoviocytes (FLSs). Description: In vitro Matrigel invasion assay of FLSs. Type of test: cell-based. The following applies: 0.1, 1.0, 10.0, 100 μM; presence and absence of PDGF 10 ng/mL. Here is the method: FIG. 8A and FIG. 8B show the effects of SPL-108 (A6) on the invasion of FLSs using an in vitro Matrigel invasion assay. Platelet-derived growth factor (10 ng/mL) was used to stimulate invasion and the area of invasion was measured in […] before and after the addition of 0.1, 1.0, 10.0, and 100 μM SPL-108 (A6) in the presence and absence of PDGF.

Test [2] has as its system arthritis-induced osteoclastogenesis. The following applies: other animal studies; cited from earlier work.
For the next test, the system named is CIA mice. Description: Collagen-induced arthritis (CIA) mouse model. Type of test: in vivo. An excerpt:
FIGS. 10A, 10B, 10C, 10D, and 10E show histology and histological scores in ankles collected at the end of the experiments. At the end of the experiment, ankle bones were collected and decalcified in EDTA for 10 days. Decalcified bones were embedded and sagittal sections obtained and stained. H&E staining was used to help score cell infiltration, synovial thickness, and bone damage (FIG. 10A). In the figure, safranin staining will help to score cartilage damage. Black arrows show infiltration in arthritic mice treated with PBS compared to control mice without arthritis. White arrows show lack of safranin staining in the arthritic mice cartilage because of proteoglycan degradation compared to control mice without arthritis.
In the examples below, mice were used in a collagen-induced arthritis (CIA) model, a commonly used model to examine pathogenesis of rheumatoid arthritis. […] At day 0, mice were immunized with type II collagen/CFA. […] Arthritis onset subsequently occurs 4-10 days after the day 28 LPS injection. The experimental groups consisted of four groups: group 1: 6 CIA mice treated with vehicle; group 2: 6 CIA mice treated with […] SPL-108 twice a day, starting at arthritis onset (between day 32 to 36); group 3: 6 CIA mice treated with 100 mg/kg SPL-108 twice a day, starting at arthritis onset (between day 32 to 36); and group 4: 6 mice without CIA and not treated (negative control). In preventive strategies, a prophylactic treatment of SPL-108 would be started at day 0, at the time of first immunization.
FIGS. 10A, 10B, 10C, 10D, and 10E show histological scores of ankle bones collected at the end of experiments. At the end of the experiment, ankles were collected and decalcified in EDTA for 10 days. They were embedded and sagittal sections were obtained and stained. H&E staining was used to help score cell infiltration, synovial thickness, and bone damage. In the figure, safranin staining will help to score cartilage damage. Black arrows show infiltration in arthritic mice treated with PBS compared to control mice without arthritis. White arrows show lack of safranin staining (red) in the arthritic mice cartilage because of proteoglycan degradation compared to control mice without arthritis.

Test [3] relates to fibroblast-like synoviocytes (FLSs). Briefly: In vitro Scratch migration assay of FLSs. Type of test: cell-based. The following applies: 0.1, 1.0, 10.0, 100 μM. On the procedure: Cells were grown to confluence and a thin “wound” was introduced by scratching with a pipette tip. Cells at the wound edge polarize and migrate into the wound space.
For test [4], the system named is pre-existing osteoarthritis. Description: Osteoarthritis symptoms in ovarian cancer patients on SPL-108 plus paclitaxel. Type of test: in vivo, human. The following applies: two patients; SPL-108 150 mg twice a day with paclitaxel 80 mg/m^2 weekly on Days 1, 8, 15, three 28-day cycles. On the procedure:
Two patients diagnosed with […] ovarian cancer, and enrolled in a clinical trial for evaluating the efficacy of SPL-108 in combination with paclitaxel (standard-of-care treatment), reported relief from symptoms of pre-existing osteoarthritis. Each patient received SPL-108 150 mg twice a day and Paclitaxel 80 mg/m^2 weekly on Days 1, 8, and 15, in three 28-day cycles. Each patient received a total of 25,200 mg of SPL-108 over the course of treatment.

[5] abbreviates: ankles at end of experiment, H&E staining.
Where [6] appears, read: either dose (50 or 100 mg/kg twice a day).

With Ac-KPSSPPEE-NH2 [SPL-108], in test [1], the “invasion of FLSs (area of invasion)” value is recorded as “inhibited the invasion of FLSs in a dose-dependent manner”. The arthritis-induced osteoclastogenesis result in test [2] is given as “inhibited arthritis-induced osteoclastogenesis”. In addition, in the test with CIA mice (50 mg/kg twice a day), the “clinical score vs vehicle, significance” value was “significantly different at day 4, 5, 6, 7” and the “paw swelling vs vehicle, significance” value is listed as “significantly different from day 11 to day 19”. Also, in the test with CIA mice (50 mg/kg twice a day from arthritis onset), the “body weight vs vehicle, significance” value is “significantly different at day 7 and 9”. Besides, in the test with CIA mice (100 mg/kg twice a day), the “clinical score vs vehicle, significance” value is listed as “significantly different from day 4 to day 20” and the “paw swelling vs vehicle, significance” value is recorded as “significantly different from day 11 to day 19”. Moreover, the “body weight vs vehicle, significance” value with CIA mice (100 mg/kg twice a day from arthritis onset) was “significantly different at day 5, 7, 9 and 11”. Moreover, the body weight decrease in the test on CIA mice (CIA mice, through 11 days after disease onset, vehicle 3 grams decrease) is roughly 1 gram. For the same substance, in the test on CIA mice (setting [5]), the “bone damage (histological score)” value is reported as “reduction”, the “synovial hypertrophy (histological score)” value is given as “reduction” and the “synovial infiltration (histological score)” value is “reduction”. The “cartilage damage (histological score)” value in the test with CIA mice (ankles at end of experiment, safranin staining) is “reduction”. In the test with CIA mice (setting [6]), the “clinical score compared to vehicle” value is reported as “lower” and the “paw swelling (paw size) compared to vehicle” value is given as “lower”. For the same substance, the “migration of FLSs into wound space” value in test [3] was “inhibited the migration of FLSs in a dose-dependent manner”. In test [4], the “improvement in osteoarthritis symptoms” value is recorded as “reduction to elimination of joint pain”.

Source of the values: patent US20220125893A1, “METHODS FOR TREATING ARTHRITIS USING SPL-108 PEPTIDE” (Splash Pharmaceuticals, Inc., priority 2019, published 2022).
